Measured values as given in PubChem BioAssay (NCI).
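The compound was tested at five concentrations on cells cultured in 96-well plates, with a 48-hour exposure period. GI50: concentration for 50% inhibition of growth. TGI: total growth inhibition.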

What was measured:
Assay in all cases: growth of human tumour cells (NCI), 48 h
MDA-MB-231 breast = tested on: MDA-MB-231 breast
K-562 leukemia = tested on: K-562 leukemia
BT-549 breast = tested on: BT-549 breast
A549 NSCLC = tested on: A549 NSCLC
SR leukemia = tested on: SR leukemia
MALME-3M melanoma = tested on: MALME-3M melanoma
HCT-15 colon = tested on: HCT-15 colon
OVCAR-8 ovarian = tested on: OVCAR-8 ovarian
SK-MEL-5 melanoma = tested on: SK-MEL-5 melanoma
UO-31 renal = tested on: UO-31 renal
MCF7 breast = tested on: MCF7 breast
NCI/ADR-RES ovarian = tested on: NCI/ADR-RES ovarian
TK-10 renal = tested on: TK-10 renal
HT29 colon = tested on: HT29 colon
PC-3 prostate = tested on: PC-3 prostate
HOP-92 NSCLC = tested on: HOP-92 NSCLC
MOLT-4 leukemia = tested on: MOLT-4 leukemia
ACHN renal = tested on: ACHN renal
CCRF-CEM leukemia = tested on: CCRF-CEM leukemia
NCI-H522 lung = tested on: NCI-H522 lung
HL-60(TB) leukemia = tested on: HL-60(TB) leukemia
NCI-H460 lung = tested on: NCI-H460 lung
SN12C renal = tested on: SN12C renal
786-0 renal = tested on: 786-0 renal
CAKI-1 renal = tested on: CAKI-1 renal
IGROV1 ovarian = tested on: IGROV1 ovarian
UACC-62 melanoma = tested on: UACC-62 melanoma
OVCAR-3 ovarian = tested on: OVCAR-3 ovarian
RXF 393 renal = tested on: RXF 393 renal
SNB-19 CNS = tested on: SNB-19 CNS
HCC-2998 colon = tested on: HCC-2998 colon
SK-OV-3 ovarian = tested on: SK-OV-3 ovarian
OVCAR-5 ovarian = tested on: OVCAR-5 ovarian
SK-MEL-2 melanoma = tested on: SK-MEL-2 melanoma
COLO 205 colon = tested on: COLO 205 colon
NCI-H226 lung = tested on: NCI-H226 lung
MDA-MB-435 = tested on: MDA-MB-435
NCI-H23 lung = tested on: NCI-H23 lung
T-47D breast = tested on: T-47D breast
SK-MEL-28 melanoma = tested on: SK-MEL-28 melanoma
OVCAR-4 ovarian = tested on: OVCAR-4 ovarian
LOX IMVI melanoma = tested on: LOX IMVI melanoma
HCT-116 colon = tested on: HCT-116 colon
DU-145 prostate = tested on: DU-145 prostate
SF-539 CNS = tested on: SF-539 CNS
KM12 colon = tested on: KM12 colon
RPMI-8226 leukemia = tested on: RPMI-8226 leukemia
A498 renal = tested on: A498 renal
EKVX NSCLC = tested on: EKVX NSCLC
HOP-62 NSCLC = tested on: HOP-62 NSCLC
HS 578T breast = tested on: HS 578T breast
SNB-75 CNS = tested on: SNB-75 CNS
SF-295 CNS = tested on: SF-295 CNS
SW-620 colon = tested on: SW-620 colon
U251 CNS = tested on: U251 CNS
M14 melanoma = tested on: M14 melanoma
SF-268 CNS = tested on: SF-268 CNS

For `Nc1nonc1C(=Nc1ccc(F)c(Cl)c1)NO`, the GI50 (MDA-MB-231 breast) was 29.7 µM, the TGI (MDA-MB-231 breast) was greater than 100 µM and the GI50 (K-562 leukemia) was 58.8 µM. It also gave a TGI (K-562 leukemia) greater than 100 µM, a GI50 (BT-549 breast) of 29.8 µM and a TGI (BT-549 breast) greater than 100 µM. For the same compound, the GI50 (A549 NSCLC) was greater than 66 µM, the TGI (A549 NSCLC) was greater than 100 µM and the GI50 (SR leukemia) was greater than 63.2 µM. It also gave a TGI (SR leukemia) greater than 100 µM, a GI50 (MALME-3M melanoma) of 95.2 µM and a TGI (MALME-3M melanoma) greater than 100 µM. It also gave a GI50 (HCT-15 colon) of 47.3 µM, a TGI (HCT-15 colon) greater than 100 µM and a GI50 (OVCAR-8 ovarian) of 71.1 µM. It also gave a TGI (OVCAR-8 ovarian) greater than 100 µM, a GI50 (SK-MEL-5 melanoma) of 41.4 µM and a TGI (SK-MEL-5 melanoma) greater than 100 µM. For the same compound, the GI50 (UO-31 renal) was 12.6 µM, the TGI (UO-31 renal) was 97.5 µM and the GI50 (MCF7 breast) was 41.6 µM. For the same compound, the TGI (MCF7 breast) was greater than 100 µM, the GI50 (NCI/ADR-RES ovarian) was 49.2 µM and the TGI (NCI/ADR-RES ovarian) was greater than 100 µM. The GI50 (TK-10 renal) was 55.9 µM, the TGI (TK-10 renal) was greater than 100 µM and the GI50 (HT29 colon) was greater than 100 µM. The TGI (HT29 colon) was greater than 100 µM, the GI50 (PC-3 prostate) was 42.4 µM and the TGI (PC-3 prostate) was greater than 100 µM. The GI50 (HOP-92 NSCLC) was 12.6 µM, the TGI (HOP-92 NSCLC) was 54.9 µM and the GI50 (MOLT-4 leukemia) was 43.4 µM. It also gave a TGI (MOLT-4 leukemia) greater than 100 µM, a GI50 (ACHN renal) of 32.7 µM and a TGI (ACHN renal) greater than 100 µM. For the same compound, the GI50 (CCRF-CEM leukemia) was 98.3 µM, the TGI (CCRF-CEM leukemia) was greater than 100 µM and the GI50 (NCI-H522 lung) was greater than 47.1 µM. The TGI (NCI-H522 lung) was greater than 100 µM, the GI50 (HL-60(TB) leukemia) was 62.8 µM and the TGI (HL-60(TB) leukemia) was greater than 100 µM. The GI50 (NCI-H460 lung) was greater than 93.2 µM, the TGI (NCI-H460 lung) was greater than 100 µM and the GI50 (SN12C renal) was 45.8 µM. For the same compound, the TGI (SN12C renal) was greater than 100 µM, the GI50 (786-0 renal) was 63.3 µM and the TGI (786-0 renal) was greater than 100 µM. It also gave a GI50 (CAKI-1 renal) of 28.8 µM, a TGI (CAKI-1 renal) greater than 100 µM and a GI50 (IGROV1 ovarian) of 28.9 µM. For the same compound, the TGI (IGROV1 ovarian) was greater than 100 µM, the GI50 (UACC-62 melanoma) was 29.8 µM and the TGI (UACC-62 melanoma) was greater than 100 µM. It also gave a GI50 (OVCAR-3 ovarian) of 43.1 µM, a TGI (OVCAR-3 ovarian) greater than 100 µM and a GI50 (RXF 393 renal) of 33.6 µM. For the same compound, the TGI (RXF 393 renal) was greater than 100 µM, the GI50 (SNB-19 CNS) was greater than 94.2 µM and the TGI (SNB-19 CNS) was greater than 100 µM. For the same compound, the GI50 (HCC-2998 colon) was greater than 91.5 µM, the TGI (HCC-2998 colon) was greater than 100 µM and the GI50 (SK-OV-3 ovarian) was 49.3 µM. It also gave a TGI (SK-OV-3 ovarian) greater than 100 µM, a GI50 (OVCAR-5 ovarian) of 53.2 µM and a TGI (OVCAR-5 ovarian) greater than 100 µM. For the same compound, the GI50 (SK-MEL-2 melanoma) was 65 µM, the TGI (SK-MEL-2 melanoma) was greater than 100 µM and the GI50 (COLO 205 colon) was 60.5 µM. For the same compound, the TGI (COLO 205 colon) was greater than 100 µM, the GI50 (NCI-H226 lung) was 68 µM and the TGI (NCI-H226 lung) was greater than 100 µM. For the same compound, the GI50 (MDA-MB-435) was greater than 88.4 µM, the TGI (MDA-MB-435) was greater than 100 µM and the GI50 (NCI-H23 lung) was 46.6 µM. It also gave a TGI (NCI-H23 lung) greater than 100 µM, a GI50 (T-47D breast) of 20.4 µM and a TGI (T-47D breast) greater than 100 µM. It also gave a GI50 (SK-MEL-28 melanoma) greater than 100 µM, a TGI (SK-MEL-28 melanoma) greater than 100 µM and a GI50 (OVCAR-4 ovarian) of 25.3 µM. It also gave a TGI (OVCAR-4 ovarian) greater than 100 µM, a GI50 (LOX IMVI melanoma) of 40 µM and a TGI (LOX IMVI melanoma) greater than 100 µM. The GI50 (HCT-116 colon) was 51.5 µM, the TGI (HCT-116 colon) was greater than 100 µM and the GI50 (DU-145 prostate) was 63.7 µM. It also gave a TGI (DU-145 prostate) greater than 100 µM, a GI50 (SF-539 CNS) of 54.2 µM and a TGI (SF-539 CNS) greater than 100 µM. The GI50 (KM12 colon) was 79 µM, the TGI (KM12 colon) was greater than 100 µM and the GI50 (RPMI-8226 leukemia) was 42.3 µM. The TGI (RPMI-8226 leukemia) was greater than 100 µM, the GI50 (A498 renal) was 21.1 µM and the TGI (A498 renal) was greater than 86.9 µM. It also gave a GI50 (EKVX NSCLC) of 25.1 µM, a TGI (EKVX NSCLC) greater than 100 µM and a GI50 (HOP-62 NSCLC) of 28 µM. For the same compound, the TGI (HOP-62 NSCLC) was greater than 100 µM, the GI50 (HS 578T breast) was 49.5 µM and the TGI (HS 578T breast) was greater than 100 µM. It also gave a GI50 (SNB-75 CNS) of 14.2 µM, a TGI (SNB-75 CNS) of 76.5 µM and a GI50 (SF-295 CNS) of 37.9 µM. For the same compound, the TGI (SF-295 CNS) was greater than 100 µM, the GI50 (SW-620 colon) was greater than 100 µM and the TGI (SW-620 colon) was greater than 100 µM. It also gave a GI50 (U251 CNS) greater than 75.7 µM, a TGI (U251 CNS) greater than 100 µM and a GI50 (M14 melanoma) of 51.9 µM. For the same compound, the TGI (M14 melanoma) was greater than 100 µM, the GI50 (SF-268 CNS) was 39.4 µM and the TGI (SF-268 CNS) was greater than 100 µM.
